Patent US20230382926A1, “COMPOUNDS AND USES THEREOF” (The University of The West Indies, priority 2022, published 2023)

Columns and labels:
[1] = tested on: Enterobacter cloacae ATCC BAA-1143; assay: Rescue concentration, modified checkerboard MIC adjuvant assay; assay type: cell-based; conditions: E. cloacae ATCC BAA-1143; for Rescue concentration, Amp (8): Amp at susceptible breakpoint 8 μg mL^−1; for Rescue concentration, Azi (16): Azi at susceptible breakpoint 16 μg mL^−1; for Rescue concentration, Ceph (8): Ceph at susceptible breakpoint 8 μg mL^−1; for Rescue concentration, Chl (8): Chl at susceptible breakpoint 8 μg mL^−1; for Rescue concentration, Col (8): Col at susceptible breakpoint 8 μg mL^−1; for Rescue concentration, Dox (4): Dox at susceptible breakpoint 4 μg mL^−1; for Rescue concentration, Gen (4): Gen at susceptible breakpoint 4 μg mL^−1; for Rescue concentration, Imi (1): Imi at susceptible breakpoint 1 μg mL^−1; for Rescue concentration, Tet (4): Tet at susceptible breakpoint 4 μg mL^−1
Method in brief: (§1)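 Modified checkerboard: antibiotic fixed at CLSI M100 susceptible breakpoint with twofold dilutions of SP-azaBIM, against 10^6 CFU/ml in cation-adjusted MHB, 24 h at 35 °C aerobically; only antibiotics to which the strain is resistant tested. Rescue concentration is the lowest adjuvant level giving 99.99% growth reduction by visual read.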

[2] = tested on: Acinetobacter baumannii clinical isolate 9978; assay: as above; assay type: cell-based; conditions: A. baumannii clinical isolate 9978; for Rescue concentration, Amox (8): Amox at susceptible breakpoint 8 μg mL^−1; for Rescue concentration, Cef (8): Cef at susceptible breakpoint 8 μg mL^−1; for Rescue concentration, Col (2): Col at susceptible breakpoint 2 μg mL^−1; for Rescue concentration, Gen (4): Gen at susceptible breakpoint 4 μg mL^−1; for Rescue concentration, Imi (2): Imi at susceptible breakpoint 2 μg mL^−1; for Rescue concentration, Mero (2): Mero at susceptible breakpoint 2 μg mL^−1; for Rescue concentration, Pol B (2): Pol B at susceptible breakpoint 2 μg mL^−1
Method in brief: as §1

[3] = tested on: Multidrug resistant Pseudomonas aeruginosa; assay: Broth microdilution minimum inhibitory concentration; assay type: cell-based; conditions: compound alone
Method in brief: (§2)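 Broth microdilution followed CLSI M07-A10, using 11 two-fold dilutions (top 1028 μg/mL, 2% DMSO final) and an inoculum of 2×10^5 to 8×10^5 CFU/mL. Wells were scored visually. MIC is the lowest concentration with no growth, tested in duplicate.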

[4] = tested on: Carbapenem resistant Acinetobacter baumannii; assay: as above; assay type: cell-based; conditions: compound alone
Method in brief: as §2

[5] = tested on: Vancomycin resistant Enterococcus faecalis; assay: as above; assay type: cell-based; conditions: compound alone
Method in brief: as §2

[6] = tested on: Methicillin resistant Staphylococcus aureus; assay: as above; assay type: cell-based; conditions: compound alone
Method in brief: as §2

MRSA = assay: Rescue concentration of substituted phenyl azaindole derivatives; assay type: cell-based, Staphylococcus aureus; conditions: Amoxicillin fixed at 2 μg/mL
Method in brief: (§3)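 Modified checkerboard MIC: fixed CLSI susceptible-breakpoint antibiotic concentration plus twofold dilution series of SP-azaBIM, 10^6 CFU/ml in ca-MHB, 35° C, 24 h aerobic. Only antibiotics to which the strain was resistant were tested. Rescue concentration = lowest compound concentration giving 99.99% growth reduction (visual) at breakpoint.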

K. pneumoniae = assay: as above; assay type: cell-based; conditions: for Rescue concentration, K. pneumoniae Ciprofloxacin (1 μg/mL): Ciprofloxacin fixed at 1 μg/mL; for Rescue concentration, K. pneumoniae Imipenem (1 μg/mL): Imipenem fixed at 1 μg/mL
Method in brief: as §3

P. aeruginosa = assay: as above; assay type: cell-based; conditions: Imipenem fixed at 1 μg/mL
Method in brief: as §3

| Compound | Rescue concentration, Amp (8) [1] [µg/mL] | Rescue concentration, Azi (16) [1] [µg/mL] | Rescue concentration, Ceph (8) [1] [µg/mL] | Rescue concentration, Chl (8) [1] [µg/mL] | Rescue concentration, Col (8) [1] [µg/mL] | Rescue concentration, Dox (4) [1] [µg/mL] | Rescue concentration, Gen (4) [1] [µg/mL] | Rescue concentration, Imi (1) [1] [µg/mL] | Rescue concentration, Tet (4) [1] [µg/mL] | Rescue concentration, Amox (8) [2] [µg/mL] | Rescue concentration, Cef (8) [2] [µg/mL] | Rescue concentration, Col (2) [2] [µg/mL] | Rescue concentration, Gen (4) [2] [µg/mL] | Rescue concentration, Imi (2) [2] [µg/mL] | Rescue concentration, Mero (2) [2] [µg/mL] | Rescue concentration, Pol B (2) [2] [µg/mL] | MIC [3] [µg/mL] | MIC [4] [µg/mL] | MIC [5] [µg/mL] | MIC [6] [µg/mL] | further results |
| --- | --- | --- | --- | --- | --- | --- | --- | --- | --- | --- | --- | --- | --- | --- | --- | --- | --- | --- | --- | --- | --- |
| Brc1ccc(C(c2c[nH]c3ncccc23)c2c[nH]c3ncccc23)cc1 [SP-7azaBIM 126, 3,3′-((4-bromophenyl)methylene)bis(1H-pyrrolo[2,3-b]pyridine)] | 128 | >128 | >128 | >128 | >128 | >128 | >128 | >128 | >128 | >128 | >128 | >128 | >128 | >128 | >128 | >128 | – | – | – | – | – |
| Oc1ccc(C(c2c[nH]c3cnccc23)c2c[nH]c3cnccc23)cc1 [SP-6azaBIM 136, 4-(bis(1H-pyrrolo[2,3-c]pyridin-3-yl)methyl)phenol] | 16 | 16 | 16 | 32 | 16 | 4 | 8 | 4 | 4 | 16 | 32 | 64 | 16 | 2 | 32 | 64 | < 1020 | < 1020 | < 1020 | < 1020 | Rescue concentration, MRSA Amoxicillin (2 μg/mL) (MRSA): 8 µg/mL; Rescue concentration, K. pneumoniae Ciprofloxacin (1 μg/mL) (K. pneumoniae): <256 µg/mL; Rescue concentration, K. pneumoniae Imipenem (1 μg/mL) (K. pneumoniae): <256 µg/mL; Rescue concentration, P. aeruginosa Imipenem (1 μg/mL) (P. aeruginosa): 256 µg/mL |
| Brc1ccc(C(c2c[nH]c3cnccc23)c2c[nH]c3cnccc23)cc1 [SP-6azaBIM 125, 3,3′-((4-bromophenyl)methylene)bis(1H-pyrrolo[2,3-c]pyridine)] | 32 | >128 | >128 | >128 | >128 | >128 | >128 | >128 | >128 | 16 | 2 | 4 | 2 | 4 | 8 | 16 | < 1020 | < 1020 | < 1020 | < 1020 | Rescue concentration, MRSA Amoxicillin (2 μg/mL) (MRSA): 0.5 µg/mL; Rescue concentration, K. pneumoniae Ciprofloxacin (1 μg/mL) (K. pneumoniae): 4 µg/mL; Rescue concentration, K. pneumoniae Imipenem (1 μg/mL) (K. pneumoniae): 4 µg/mL; Rescue concentration, P. aeruginosa Imipenem (1 μg/mL) (P. aeruginosa): 32 µg/mL |
| Oc1ccc(C(c2c[nH]c3ncccc23)c2c[nH]c3ncccc23)cc1 [SP-7azaBIM 135, 4-(bis(1H-pyrrolo[2,3-b]pyridin-3-yl)methyl)phenol] | 64 | >128 | >128 | >128 | 64 | >128 | >128 | 32 | >128 | >127 | >128 | >128 | >128 | >128 | >128 | >128 | – | – | – | – | – |
